The test system of one data set is off-targets (Panlabs). The data set can be described thus: Panlab off-target assay panel. As to conditions: 10 μM; for number of targets with ≥75% inhibition: Safety Panel = 28 binding assays (Eurofins Panlabs). Type of data set: binding. On the procedure:
(§1) Compounds A, B, C, and D were tested in Panlab assays to evaluate potential off-target activity using standard assay kits. Methods employed in these studies have been adapted from the scientific literature to maximize reliability and reproducibility. Reference standards were run as an integral part of each assay to ensure the validity of the results obtained.
IC50 values were determined by a non-linear, least squares regression analysis using MathIQ™ (ID Business Solutions Ltd., UK). Where inhibition constants (Ki) are presented, the Ki values were calculated using the equation of Cheng and Prusoff (Cheng, Y., Prusoff, W. H., Biochem. Pharmacol. 22:3099-3108, 1973) using the observed IC50 of the tested compound, the concentration of radioligand employed in the assay, and the historical values for the KD of the ligand (obtained experimentally at Eurofins Panlabs, Inc.). Where presented, the Hill coefficient (nH), defining the slope of the competitive binding curve, was calculated using MathIQ™.

Data set [1] can be described thus: Tolerability study of Compound A and Compound D (body weight). Type of data set: in vivo, female NSG mice. The conditions noted are these: for initial loss in weight: 10 mg/kg dosing group (Compound A PO, Compound D IV), recovered after dosing holiday; for tolerability: doses at or below 3 mg/kg (Compound A PO, Compound D IV). On the procedure:
Twenty-five female NSG mice were randomly assigned to various treatment groups as described in Table 11. All mice were treated for 7 days unless as indicated below.
On study days zero to six (seven doses), Compound A was administered via oral gavage in a volume of 10 mL/kg and Compound D was administered via intravenous injection into the lateral tail vein in a volume of 10 mL/kg. Body weights were recorded daily for fifteen days (days zero to fourteen) and animal health was assessed daily.
Mice were monitored clinically for signs of morbidity and for body weights daily. Mice showing signs of morbidity were euthanized as per study guidelines.

The target in data set [2] is T1, CDK8 (Homo sapiens, UniProt P49336). The data set is described as follows: CDK8 Kd and residence time. The class given is binding.
T1 sequence (P49336 whole entry): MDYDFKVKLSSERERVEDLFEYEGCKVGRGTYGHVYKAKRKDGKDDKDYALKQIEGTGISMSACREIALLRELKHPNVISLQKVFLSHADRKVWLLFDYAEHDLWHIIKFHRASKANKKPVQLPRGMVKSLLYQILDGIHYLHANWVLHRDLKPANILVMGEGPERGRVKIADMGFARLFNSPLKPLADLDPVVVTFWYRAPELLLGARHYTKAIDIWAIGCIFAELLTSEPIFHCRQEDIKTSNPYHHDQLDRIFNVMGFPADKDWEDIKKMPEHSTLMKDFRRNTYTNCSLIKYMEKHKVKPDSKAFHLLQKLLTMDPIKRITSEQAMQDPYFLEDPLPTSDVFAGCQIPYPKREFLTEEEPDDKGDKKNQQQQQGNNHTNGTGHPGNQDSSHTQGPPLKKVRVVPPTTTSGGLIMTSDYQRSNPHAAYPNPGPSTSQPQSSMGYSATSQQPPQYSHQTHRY
T1 sequence (P24863 whole entry partner): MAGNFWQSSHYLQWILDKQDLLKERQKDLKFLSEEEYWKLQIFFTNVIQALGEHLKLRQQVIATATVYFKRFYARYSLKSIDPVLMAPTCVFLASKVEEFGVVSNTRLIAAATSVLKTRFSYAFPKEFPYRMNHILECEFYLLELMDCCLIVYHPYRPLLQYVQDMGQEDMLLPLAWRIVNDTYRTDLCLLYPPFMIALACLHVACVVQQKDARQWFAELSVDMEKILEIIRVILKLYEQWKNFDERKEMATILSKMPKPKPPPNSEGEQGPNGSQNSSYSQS
The target of data set [3] is T1, CDK8. The data set can be described thus: Western blot study of CDK8 inhibition. The class given is cell-based. As to conditions: decreased staining results from inhibition of the target. On the procedure:
CDK8 inhibition in cells as measured by inhibition of Interferon-gamma (IFNγ)-stimulated STAT1-S727 phosphorylation. The compounds were provided as 200 μl of 1×10^−03 M/100% stock solutions in vials. The vials arrived in good condition and 2×100 μl each of the stock solutions were transferred into wells A2 to H2 of a 96 well “master plate” (barcoded “11273-UNH-01”), according to Table 12.
The dose response curves presented above were corroborated with western blot studies.
A general note: Immunoblotting shows a protein as a band on a membrane.

Another data set relates to MOLM-14. The data set can be described thus: Half-maximal growth inhibition (GI50), MOLM-14. As to conditions: Homo sapiens, 240 h, AML, M5, MLL-AF9, read-out: GI50 (nM), day 10. Type of data set: cell-based. On the procedure: (§2) Compounds A, B, C, D, and F were tested against various cell lines to probe their broad utility against cancer. Cortistatin A (CA) was also tested against the cell lines in a head to head fashion.

The test system of data set [4] is SET-2 AML cell line (FLAG-CDK8 WT vs FLAG-CDK8-W105M). The data set is described as follows: CDK8 W105M versus wild type SET-2 cell competition (flow cytometry). Type of data set: cell-based. The conditions noted are these: after 3 days and 7 days of treatment. On the procedure:
Compounds A, B, C, and D inhibit SET-2 AML cell line proliferation by inhibiting CDK8. ZsGreen (Clontech) and FLAG-CDK8 WT (wild type) or mCherry (Clontech) and FLAG-CDK8-W105M were expressed in SET 2 cells. The cells were mixed, the ratio of red to green fluorescence was determined by flow cytometry, and the cells were treated with the indicated compounds. After 3 days and 7 days of treatment, the ratio of red to green fluorescent cells was determined.

For a further data set, the system named is sodium channel. The data set is described as follows: Panlab sodium channel assay. As to conditions: 10 μM. Type of data set: binding. On the procedure:
as §1
(§3) Compound B was tested in a subset of 30 Panlab assays that included the hits from screening Compound F in addition to the Panlab hERG and sodium channel assay. This allows direct comparison of Compound B to Compound F in terms of off-target profile.

The next data set concerns MKPL1. The data set is described as follows: Half-maximal growth inhibition (GI50), MKPL1. The class given is cell-based. The conditions noted are these: Homo sapiens, 240 h, AML, M7, read-out: GI50 (nM), day 10. On the procedure: as §2
The next data set deals with hERG (Homo sapiens, UniProt Q12809). The data set can be described thus: Panlab hERG assay. The class given is binding. Set-up: Eurofins Panlabs. On the procedure: as §1, §3
Sequence of hERG (Q12809 whole entry): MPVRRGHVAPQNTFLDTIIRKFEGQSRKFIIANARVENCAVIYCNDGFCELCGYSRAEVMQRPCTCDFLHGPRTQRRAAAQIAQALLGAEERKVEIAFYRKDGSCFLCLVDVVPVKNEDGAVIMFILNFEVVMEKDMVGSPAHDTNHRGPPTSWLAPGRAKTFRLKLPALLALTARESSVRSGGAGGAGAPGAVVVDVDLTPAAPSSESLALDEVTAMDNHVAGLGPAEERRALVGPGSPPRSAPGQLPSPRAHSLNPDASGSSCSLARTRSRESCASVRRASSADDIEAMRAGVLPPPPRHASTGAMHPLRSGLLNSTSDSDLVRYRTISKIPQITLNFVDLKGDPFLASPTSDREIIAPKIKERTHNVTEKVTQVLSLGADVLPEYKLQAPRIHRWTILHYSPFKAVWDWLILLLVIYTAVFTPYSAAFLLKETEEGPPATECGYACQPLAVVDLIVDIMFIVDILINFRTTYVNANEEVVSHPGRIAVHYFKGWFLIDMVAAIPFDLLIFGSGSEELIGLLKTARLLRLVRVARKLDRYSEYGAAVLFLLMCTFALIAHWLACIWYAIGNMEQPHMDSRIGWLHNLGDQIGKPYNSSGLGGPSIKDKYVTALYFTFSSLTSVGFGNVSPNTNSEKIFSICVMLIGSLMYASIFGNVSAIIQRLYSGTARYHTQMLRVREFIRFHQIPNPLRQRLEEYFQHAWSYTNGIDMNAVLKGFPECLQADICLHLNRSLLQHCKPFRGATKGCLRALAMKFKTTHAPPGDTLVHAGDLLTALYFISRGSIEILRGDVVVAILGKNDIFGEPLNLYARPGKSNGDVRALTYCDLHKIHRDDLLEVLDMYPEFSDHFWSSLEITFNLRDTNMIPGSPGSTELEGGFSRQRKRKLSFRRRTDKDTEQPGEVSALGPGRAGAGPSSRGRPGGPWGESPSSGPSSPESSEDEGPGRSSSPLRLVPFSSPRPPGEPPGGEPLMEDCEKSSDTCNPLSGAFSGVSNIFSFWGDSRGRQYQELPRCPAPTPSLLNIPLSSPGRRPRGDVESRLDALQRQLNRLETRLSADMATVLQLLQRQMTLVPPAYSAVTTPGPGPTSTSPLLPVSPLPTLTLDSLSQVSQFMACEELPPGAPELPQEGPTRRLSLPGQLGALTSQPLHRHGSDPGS
For orientation: hERG is a cardiac potassium channel; its block is linked to QT prolongation.

Consider `C[C@]12CC=C3C=C4CC[C@@H](O)C[C@]45CC[C@]3(O5)[C@@H]1CC[C@@H]2c1ccc2ccncc2c1` [Compound A, (3S,3aR,9R,10aR,12aS,12bR)-3-(isoquinolin-7-yl)-3a-methyl-1,2,3,3a,4,7,8,9,10,11,12,12b-dodecahydro-10a,12a-epoxybenzo[4,5]cyclohepta[1,2-e]inden-9-ol], for which the “number of targets with ≥75% inhibition” value in the data set on off-targets (Panlabs) stood at 0. Moreover, in the data set with off-targets (Panlabs) (over 100 Panlab assays), the “number of targets with greater than 50% inhibition” value amounted to 8. For the same compound, in data set [1], the “initial loss in weight” value is recorded as “approximately 15%” and the “tolerability” value was “well tolerated”. On CDK8 [2], this compound came in with a dissociation constant Kd of 0.23 ± 0.02 nM and a residence time of 447 min. The “inhibition of CDK8 in Western blot” value at CDK8 [3] is “dose dependent response”. In the data set on MOLM-14, the GI50 was 6 nM. In data set [4], the “ratio of red (CDK8 W105M) to green (wild type) fluorescent cells” value (shortened to “ratio of red (CDK8 W105M) to green”) was “dose-dependently shifted the ratio of red to green cells”.
On to `C[C@]12CC=C3C=C4CC[C@@H](N5CC[C@@H](N)C5)C[C@]45CC[C@]3(O5)[C@@H]1CC[C@@H]2c1ccc2ccncc2c1` [Compound B], for which, in the data set on sodium channel, the “% inhibition, Panlab sodium channel assay” value was found to be 65%. For the same compound, in the data set with off-targets (Panlabs), the “number of targets with ≥75% inhibition” value was 8. In addition, the “number of targets with greater than 50% inhibition” value in the data set with off-targets (Panlabs) (subset of 30 Panlab assays) worked out at 8. Further, binding at CDK8 [2] was characterised by a dissociation constant (Kd) of 0.19 ± 0.05 nM. In addition, on CDK8 [3], the “inhibition of CDK8 in Western blot” value is on record as “dose dependent response”. Also, the GI50 in the data set with MOLM-14 is 31 nM; in the data set with MKPL1 it was 2 nM. Besides, the “ratio of red (CDK8 W105M) to green” value in [4] was “dose-dependently shifted the ratio of red to green cells”. The same compound showed an inhibition at 10 µM at hERG of 34%.
With `C[C@]12CC=C3C=C4CC[C@@H](N5CC(N)C5)C[C@]45CC[C@]3(O5)[C@@H]1CC[C@@H]2c1ccc2ccncc2c1` [Compound C], the “% inhibition, Panlab sodium channel assay” value in the data set with sodium channel turned out to be 66%. For the same compound, the “number of targets with ≥75% inhibition” value in the data set on off-targets (Panlabs) is reported as 4. Also, the “number of targets with greater than 75% inhibition” value in the data set with off-targets (Panlabs) (subset of 30 Panlab assays) is listed as 4. This compound returned a Kd at CDK8 [2] of 0.22 ± 0.03 nM. Further, the “inhibition of CDK8 in Western blot” value on CDK8 [3] is listed as “dose dependent response”. Besides, in the data set on MOLM-14, the concentration for 50% growth inhibition (GI50) is 21 nM. Moreover, the “ratio of red (CDK8 W105M) to green” value in data set [4] is listed as “dose-dependently shifted the ratio of red to green cells”. Moreover, the inhibition at 10 µM at hERG came out at 49%.
Consider `C[C@]12CC=C3C=C4CC[C@@H](N5C[C@H](O)[C@@H](O)C5)C[C@]45CC[C@]3(O5)[C@@H]1CC[C@@H]2c1ccc2ccncc2c1` [Compound D], for which, in the data set with sodium channel, the “% inhibition, Panlab sodium channel assay” value is 65%. Further, in the data set on off-targets (Panlabs), the “number of targets with ≥75% inhibition” value was 3. Also, the “number of targets with greater than 75% inhibition” value in the data set on off-targets (Panlabs) (subset of 30 Panlab assays) is listed as 3. Also, in [1], the “initial loss in weight” value is “approximately 20%” and the “tolerability” value is reported as “well tolerated”. The compound also displayed a Kd at CDK8 [2] of 0.2 ± 0.02 nM. Moreover, the “inhibition of CDK8 in Western blot” value against CDK8 [3] is on record as “dose dependent response”. Also, the GI50 with MOLM-14 came out at 6 nM. In the data set on MKPL1, the GI50 is 1.5 nM. The “ratio of red (CDK8 W105M) to green” value in data set [4] is listed as “dose-dependently shifted the ratio of red to green cells”. At hERG, this compound returned an inhibition at 10 µM of 20%.

By Kd is commonly meant a measure of binding affinity in units of concentration. By GI50 is commonly meant the concentration at which growth is held to half of that of the control. Usually inhibition stands for the share of the control response that was lost under treatment. Low readings indicate a weak effect, high ones a strong effect.
